Source: ChEMBL document CHEMBL3638962, “Heteroarylcarboxylic acid ester derivative” (2013)

molecular target: Enteropeptidase (Homo sapiens, UniProt P98073); assay: Inhibition Assay: Inhibition assay using human enteropeptidase.
Sequence (P98073 2-784 limits assumed): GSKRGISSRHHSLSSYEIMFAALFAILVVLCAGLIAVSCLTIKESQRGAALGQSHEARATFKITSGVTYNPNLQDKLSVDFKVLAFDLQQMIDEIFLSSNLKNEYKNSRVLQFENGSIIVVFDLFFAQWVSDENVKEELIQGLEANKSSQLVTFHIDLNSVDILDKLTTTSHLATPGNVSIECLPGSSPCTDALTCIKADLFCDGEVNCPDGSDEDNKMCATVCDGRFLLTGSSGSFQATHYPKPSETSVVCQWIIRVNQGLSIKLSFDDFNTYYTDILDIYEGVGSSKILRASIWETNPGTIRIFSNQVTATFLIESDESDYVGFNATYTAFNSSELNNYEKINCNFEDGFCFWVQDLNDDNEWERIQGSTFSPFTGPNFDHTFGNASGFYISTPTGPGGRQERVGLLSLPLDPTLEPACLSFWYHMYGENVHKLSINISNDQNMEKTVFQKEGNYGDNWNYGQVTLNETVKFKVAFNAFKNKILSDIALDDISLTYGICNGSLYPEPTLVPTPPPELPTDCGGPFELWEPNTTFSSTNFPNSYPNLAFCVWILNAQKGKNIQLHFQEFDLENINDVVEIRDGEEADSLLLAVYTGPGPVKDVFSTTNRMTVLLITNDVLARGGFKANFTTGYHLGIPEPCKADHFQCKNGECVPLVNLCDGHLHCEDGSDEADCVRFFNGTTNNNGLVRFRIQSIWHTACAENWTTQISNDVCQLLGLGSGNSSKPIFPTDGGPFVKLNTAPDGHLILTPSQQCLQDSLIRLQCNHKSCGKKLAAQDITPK
Sequence (P98073 785-1019 limits assumed): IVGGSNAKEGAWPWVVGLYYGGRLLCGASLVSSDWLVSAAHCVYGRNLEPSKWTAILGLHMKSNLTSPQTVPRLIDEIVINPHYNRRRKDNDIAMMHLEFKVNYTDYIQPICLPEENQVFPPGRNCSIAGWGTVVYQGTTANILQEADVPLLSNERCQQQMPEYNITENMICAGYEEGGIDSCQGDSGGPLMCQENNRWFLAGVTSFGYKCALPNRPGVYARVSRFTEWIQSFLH

Ki [nM] | Structure (SMILES)
0.6 | N=C(N)c1ccc(OC(=O)c2ccc(CCC(=O)N(CCC(=O)O)CC(=O)O)o2)cc1
0.68 | CC(Cc1ccc(C(=O)Oc2ccc(C(=N)N)cc2)o1)C(=O)O[C@H](CC(=O)O)C(=O)O (stereo partly drawn)
3.7 | CC(Cc1ncc(C(=O)Oc2ccc(C(=N)N)cc2F)s1)C(=O)N[C@@H](CC(=O)O)C(=O)O (stereo partly drawn)
